Square brackets hold non-standard residues; d marks the D form. Peptide text beside a SMILES is read from it. Cya = N[C@@H](CS(=O)(=O)O)C(=O)O
Tested on: study eye of subjects with intermediate non-exudative AMD
Assay: SD-OCT Analysis 2 (thickness, volume, map coverage of retinal layers)
Type: in vivo, human
Description: Numerous study assessments were conducted at various time points throughout the study. Included among these study assessments were; refractive eye examinations, determinations of BCVA AND low-luminance BCVA, Lanthony D-15 color vision test, measurement of intraocular pressure (IOP), Indirect ophthalmoscopy/dilated fundus examinations and spectral-domain optical coherence tomography (SD-OCT). Also, blood and saliva samples were obtained from each subject for genetic analysis. The above-listed study assessments were performed at the time points indicated in Table 1, below: The OCT scans were analyzed by two (2) unrelated experts. In Analysis #2, the OCT images of study eyes were analyzed to determine mean thickness and mean volume of numerous retinal subfields and layer segments at baseline and at Week 12 for sham eyes and at baseline and at Week 32 for risuteganib eyes, to document any significant differences between groups of eyes based on baseline measurements or changes from baseline in those measurements. In addition to the quantitative analysis of OCT images, OCT Analysis #2 included qualitative assessment of the OCT images to identify GA, pseudodrusen, and disruption of the ELM and EZ layers. FIGS. 9A, 9B and 9C illustrate the level of varying pathology within the ELM based on quantitative mapping that were also assessed, with FIG. 9A (left) showing no ELM disruption, FIG. 9B (center) showing segmental disruption, and FIG. 9C showing diffuse disruption.

[1] = baseline to Week 32, risuteganib arm
[2] = baseline to Week 32, risuteganib arm, paired-eye analysis
[3] = baseline to Week 32, risuteganib nonresponder eyes
[4] = baseline to Week 32, risuteganib responder eyes
[5] = baseline to Week 32, risuteganib super-responder eyes
[6] = change from baseline at Week 32, Risuteganib Nonresponder eyes
[7] = change from baseline at Week 32, Risuteganib Responder eyes

Question: `C[C@@H](O)[C@H](NC(=O)[C@H](CS(=O)(=O)O)NC(=O)CNC(=O)[C@H](CCCNC(=N)N)NC(=O)CN)C(=O)N1CCC[C@H]1C(=O)O` [risuteganib, Glycyl-L-arginylglycyl-3-sulfo-L-alanyl-L-threonyl-L-proline] (H-GRG[Cya]TP-OH) was tested. Which “Change in ELM-RPE mid subfield volume” value [1] did it give?
Answer: −0.002 mm^3

Question: And the “Change in ONL-RPE central subfield volume” value [1]?
Answer: −0.005 mm^3

Question: And the “Change in ONL-RPE mid subfield volume” value [1]?
Answer: −0.020 mm^3

Question: What about the “Change in mean ONL-RPE mid subfield thickness” value [1] of the same compound?
Answer: −6.441 μm

Question: What about the “Change in mean total retinal mid subfield thickness” value [1] of the same compound?
Answer: −2.548 μm

Question: And the “Change in total retinal mid subfield volume” value [1]?
Answer: −0.008 mm^3

Question: What about the “Difference in map coverage, 0 μm RPE-BM” value [1] of the same compound?
Answer: 1.282%

Question: And the “Difference in map coverage, 50 μm RPE-BM” value [1]?
Answer: −2.644%

Question: What about the “Difference in map coverage, 150 μm RPE-BM” value (shortened to “Difference … 150 μm RPE-BM”) [1] of the same compound?
Answer: 2.739%

Question: What about the “Change in mean ELM-RPE central subfield thickness” value [2] of the same compound?
Answer: −2.912 μm

Question: What about the “Change in mean ONL-RPE central subfield thickness” value [2] of the same compound?
Answer: −7.216 μm

Question: What about the “Change in ONL-RPE mid subfield volume” value [3] of the same compound?
Answer: −0.020 mm^3

Question: What about the “Change in RPE-BM volume” value [3] of the same compound?
Answer: 0.037 mm^3

Question: What about the “Change in mean ONL-RPE mid subfield thickness” value [3] of the same compound?
Answer: −6.320 μm

Question: And the “Change in mean total retinal central subfield thickness” value [3]?
Answer: −5.981 μm

Question: And the “Change in mean total retinal mid subfield thickness” value [3]?
Answer: −4.046 μm

Question: And the “Change in total retinal central subfield volume” value [3]?
Answer: −0.004 mm^3

Question: And the “Change in total retinal mid subfield volume” value [3]?
Answer: −0.012 mm^3

Question: And the “Change in total retinal volume” value [3]?
Answer: 0.091 mm^3

Question: What about the “Difference in map coverage, <10 μm EZ” value [3] of the same compound?
Answer: 1.332%

Question: What about the “Difference in map coverage, <20 μm EZ” value [3] of the same compound?
Answer: 1.288%

Question: What about the “Change in ELM-RPE central subfield volume” value [4] of the same compound?
Answer: −0.002 mm^3

Question: What about the “Change in RPE-BM volume” value [4] of the same compound?
Answer: −0.049 mm^3

Question: And the “Difference in map coverage, 50 μm RPE-BM” value [4]?
Answer: −3.494%

Question: What about the “Difference … 150 μm RPE-BM” value [4] of the same compound?
Answer: 3.335%

Question: And the “Change in mean ELM-RPE central subfield thickness” value (baseline to Week 32, risuteganib responder eyes, paired-eye analysis)?
Answer: −3.102 μm

Question: What about the “Change in ELM-RPE central subfield volume” value [5] of the same compound?
Answer: −0.003 mm^3

Question: And the “Difference … 150 μm RPE-BM” value [5]?
Answer: 2.943%

Question: And the “Change in mean ELM-RPE central subfield thickness” value (baseline to Week 32, risuteganib super-responder eyes, paired-eye analysis)?
Answer: −3.461 μm

Question: And the “Change in mean thickness, ELM-EZ central subfield” value [6]?
Answer: −1.332 μm

Question: What about the “Change in mean thickness, ELM-EZ mid subfield” value [6] of the same compound?
Answer: 0.754 μm

Question: And the “Change in mean thickness, ELM-RPE central subfield” value [6]?
Answer: −2.722 μm

Question: What about the “Change in mean thickness, ELM-RPE foveal center” value [6] of the same compound?
Answer: −12.189 μm

Question: And the “Change in mean thickness, ELM-RPE mid subfield” value [6]?
Answer: −1.044 μm

Question: What about the “Change in mean thickness, EZ-RPE central subfield” value [6] of the same compound?
Answer: −1.390 μm

Question: What about the “Change in mean thickness, EZ-RPE foveal center” value [6] of the same compound?
Answer: −1.789 μm

Question: And the “Change in mean thickness, EZ-RPE mid subfield” value [6]?
Answer: −1.798 μm

Question: And the “Change in mean thickness, Inner retina central subfield” value [6]?
Answer: 1.896 μm

Question: What about the “Change in mean thickness, Inner retina mid subfield” value [6] of the same compound?
Answer: 2.274 μm

Question: What about the “Change in mean thickness, ONL-EZ central subfield” value [6] of the same compound?
Answer: −6.486 μm

Question: And the “Change in mean thickness, ONL-EZ mid subfield” value [6]?
Answer: −4.522 μm

Question: What about the “Change in mean thickness, ONL-RPE central subfield” value [6] of the same compound?
Answer: −7.877 μm

Question: And the “Change in mean thickness, ONL-RPE foveal center” value [6]?
Answer: −7.626 μm

Question: What about the “Change in mean thickness, ONL-RPE mid subfield” value [6] of the same compound?
Answer: −6.320 μm

Question: What about the “Change in mean thickness, RPE-BM central subfield” value [6] of the same compound?
Answer: −0.118 μm

Question: What about the “Change in mean thickness, RPE-BM foveal center” value [6] of the same compound?
Answer: −3.740 μm

Question: And the “Change in mean thickness, RPE-BM mid subfield” value [6]?
Answer: 1.114 μm

Question: And the “Change in mean thickness, Total retinal central subfield” value [6]?
Answer: −5.981 μm

Question: And the “Change in mean thickness, Total retinal foveal center” value [6]?
Answer: −9.112 μm

Question: And the “Change in mean thickness, Total retinal mid subfield” value [6]?
Answer: −4.046 μm

Question: And the “Change in volume, ELM-EZ central subfield” value [6]?
Answer: −0.001 mm^3

Question: What about the “Change in volume, ELM-EZ mid subfield” value [6] of the same compound?
Answer: 0.002 mm^3

Question: And the “Change in volume, ELM-RPE” value [6]?
Answer: 0.009 mm^3

Question: And the “Change in volume, ELM-RPE central subfield” value [6]?
Answer: −0.002 mm^3

Question: What about the “Change in volume, ELM-RPE mid subfield” value [6] of the same compound?
Answer: −0.003 mm^3

Question: And the “Change in volume, EZ-RPE” value [6]?
Answer: 0.005 mm^3

Question: And the “Change in volume, EZ-RPE central subfield” value [6]?
Answer: −0.001 mm^3

Question: What about the “Change in volume, EZ-RPE mid subfield” value [6] of the same compound?
Answer: −0.006 mm^3

Question: What about the “Change in volume, ONL-EZ central subfield” value [6] of the same compound?
Answer: −0.005 mm^3

Question: And the “Change in volume, ONL-EZ mid subfield” value [6]?
Answer: −0.014 mm^3

Question: What about the “Change in volume, ONL-RPE” value [6] of the same compound?
Answer: −0.026 mm^3

Question: What about the “Change in volume, ONL-RPE central subfield” value [6] of the same compound?
Answer: −0.006 mm^3

Question: And the “Change in volume, ONL-RPE mid subfield” value [6]?
Answer: −0.020 mm^3

Question: What about the “Change in volume, RPE-BM” value [6] of the same compound?
Answer: 0.037 mm^3

Question: And the “Change in volume, RPE-BM central subfield” value [6]?
Answer: 0.000 mm^3

Question: What about the “Change in volume, RPE-BM mid subfield” value [6] of the same compound?
Answer: 0.004 mm^3

Question: And the “Change in volume, Total retinal” value [6]?
Answer: 0.091 mm^3

Question: What about the “Change in volume, Total retinal central subfield” value [6] of the same compound?
Answer: −0.004 mm^3

Question: And the “Change in volume, Total retinal mid subfield” value [6]?
Answer: −0.012 mm^3

Question: What about the “Map coverage, 0 μm EZ” value [6] of the same compound?
Answer: 1.469%

Question: And the “Map coverage, 0 μm RPE-BM” value [6]?
Answer: 1.465%

Question: What about the “Map coverage, 10 μm EZ” value [6] of the same compound?
Answer: 1.332%

Question: And the “Map coverage, 20 μm EZ” value [6]?
Answer: 1.288%

Question: What about the “Map coverage, 50 μm RPE-BM” value [6] of the same compound?
Answer: −1.794%

Question: What about the “Map coverage, 150 μm RPE-BM” value [6] of the same compound?
Answer: 2.143%

Question: What about the “Map coverage, 250 μm RPE-BM” value [6] of the same compound?
Answer: 0.000%

Question: And the “Change in mean thickness, ELM-EZ central subfield” value [7]?
Answer: −2.322 μm

Question: And the “Change in mean thickness, ELM-EZ mid subfield” value [7]?
Answer: −0.967 μm

Question: What about the “Change in mean thickness, ELM-RPE central subfield” value [7] of the same compound?
Answer: −3.102 μm

Question: What about the “Change in mean thickness, ELM-RPE foveal center” value [7] of the same compound?
Answer: 0.000 μm

Question: And the “Change in mean thickness, ELM-RPE mid subfield” value [7]?
Answer: −2.141 μm

Question: And the “Change in mean thickness, EZ-RPE central subfield” value [7]?
Answer: −0.779 μm

Question: What about the “Change in mean thickness, EZ-RPE foveal center” value [7] of the same compound?
Answer: 0.975 μm

Question: And the “Change in mean thickness, EZ-RPE mid subfield” value [7]?
Answer: −1.174 μm

Question: What about the “Change in mean thickness, Inner retina central subfield” value [7] of the same compound?
Answer: 5.864 μm

Question: What about the “Change in mean thickness, Inner retina mid subfield” value [7] of the same compound?
Answer: 5.512 μm

Question: And the “Change in mean thickness, ONL-EZ central subfield” value [7]?
Answer: −5.775 μm

Question: And the “Change in mean thickness, ONL-EZ mid subfield” value [7]?
Answer: −5.386 μm

Question: What about the “Change in mean thickness, ONL-RPE central subfield” value [7] of the same compound?
Answer: −6.555 μm

Reference: patent publication US20220031800A1, “PEPTIDES FOR TREATING NON-EXUDATIVE MACULAR DEGENERATION AND OTHER DISORDERS OF THE EYE” (Allegro Pharmaceuticals, LLC, priority 2019, published 2022)
